What is called EC50 is the concentration at which the effect is half-maximal.

Drawing on patent publication US9469631B2 (Boehringer Ingelheim International GmbH, priority 2012, dated 2016), this text covers EC50 for 30 compounds.

Sequence of human GPR119 (Q8TDV5 whole entry): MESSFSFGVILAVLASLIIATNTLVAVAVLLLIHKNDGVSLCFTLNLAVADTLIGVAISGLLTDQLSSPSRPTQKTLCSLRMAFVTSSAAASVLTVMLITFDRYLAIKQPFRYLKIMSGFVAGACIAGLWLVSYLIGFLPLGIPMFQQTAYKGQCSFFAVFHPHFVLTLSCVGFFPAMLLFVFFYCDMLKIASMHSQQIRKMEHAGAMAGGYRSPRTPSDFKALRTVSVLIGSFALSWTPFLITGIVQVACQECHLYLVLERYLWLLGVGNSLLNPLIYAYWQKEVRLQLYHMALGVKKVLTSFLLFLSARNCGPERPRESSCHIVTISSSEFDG

In the assay the target is human GPR119 (Homo sapiens (Human), UniProt Q8TDV5). The assay can be described thus: AlphaScreen cAMP assay in MIN6 cells stably transfected with human GPR119. The assay is classed as cell-based. Particulars: Min-6/hGPR119 cells, 45 min incubation at room temperature. The protocol:
The compounds of formula I according to the invention modulate the activity of the G-protein-coupled receptor GPR119. The effect of the compounds on the activation of GPR119 and on the stimulation of intracellular cAMP concentration is determined using the AlphaScreen cAMP Assay Kit (Cat. No. #6760625R) made by PerkinElmer.
MIN6 cells [Miyazaki J et al. Endocrinology. 1990 July; 127(1):126-32] are stably transfected with an expression vector for human GPR119 cDNA (Acc. No. NP_848566). Min-6/hGPR119 cells are cultured in DMEM, 10% FBS, 50 μM β-mercaptoethanol, 0.3 mg/mL Geniticin, 2 mM GlutaMAX at 37° C. 5% CO2. For the assay, the cells are seeded in Optiplates (white, 384-well, 160W-barcoded, TC, sterile with lid, Cat. No. #6007688 (Perkin Elmer); 10000 cells/well; 50 μl). The plates covered with lids are then incubated for 24 hours at 37° C./5% CO2. After the medium is aspirated from the wells completely, 10 μl of the test compound are added, the compounds are diluted using stimulating buffer (140 mM NaCl, 3.6 mM KCl, 0.5 mM NaH2PO4, 0.5 mM MgSO4, 1.5 mM CaCl2, 10 mM Hepes, 5 mM NaHCO3; pH 7.4. 0.5 mM IBMX and 0.1% BSA, the final DMSO concentration is 1%). After 45 minutes incubation at room temperature (approx. 20° C.), the cAMP concentrations are determined using the AlphaScreen cAMP Assay Kit (Cat. No. #6760625R from PerkinElmer).
(In general: Alpha assays give light when donor and acceptor beads are brought close together.)
On to `Cc1cncnc1-c1ccc(C(=O)N(C2CC2)C2CCN(C(=O)OC(C)(C)C)CC2)cc1` [Example 27, 4-{Cyclopropyl-[4-(5-methyl-pyrimidin-4-yl)-benzoyl]-amino}-piperidine-1-carboxylic acid tert-butyl ester], for which a half-maximal effect (EC50) was put at 469 nM.

In turn, `CC(C)(C)OC(=O)N1CCC(N(C(=O)c2ccc(-c3cnco3)c(F)c2)C2CC2)CC1` [Example 28, 4-[Cyclopropyl-(3-fluoro-4-oxazol-5-yl-benzoyl)-amino]-piperidine-1-carboxylic acid tert-butyl ester] returned a concentration giving a half-maximal response (EC50) of 8 nM.

Consider `CC(C)(C)OC(=O)N1CCC(N(C(=O)c2ccc(-c3ccncc3C#N)cc2)C2CC2)CC1` [Example 29, 4-{[4-(3-Cyano-pyridin-4-yl)-benzoyl]-cyclopropyl-amino}-piperidine-1-carboxylic acid tert-butyl ester], for which the EC50 stood at 27 nM.

The compound `CNC(=O)c1ccc(-c2ccc(C(=O)N(C3CC3)C3CCN(C(=O)OC(C)(C)C)CC3)cc2)nc1` [Example 30, 4-{Cyclopropyl-[4-(5-methylcarbamoyl-pyridin-2-yl)-benzoyl]-amino}-piperidine-1-carboxylic acid tert-butyl ester] displayed an EC50 of 171 nM.

In the case of `CC(C)OC(=O)N1CCC(N(C(=O)c2ccc(-c3ccncc3C#N)cc2)C2CC2)CC1` [Example 31, 4-{[4-(3-Cyano-pyridin-4-yl)-benzoyl]-cyclopropyl-amino}-piperidine-1-carboxylic acid isopropyl ester], the EC50 was determined as 49 nM.

`CC1(OC(=O)N2CCC(N(C(=O)c3ccc(-c4ccncc4C#N)cc3)C3CC3)CC2)CC1` [Example 32, 4-{[4-(3-Cyano-pyridin-4-yl)-benzoyl]-cyclopropyl-amino}-piperidine-1-carboxylic acid 1-methyl-cyclopropyl ester] had an EC50 of 19 nM.

`CC(C)(C)OC(=O)N1CCC(N(C(=O)c2cc(F)c(-c3cnco3)c(F)c2)C2CC2)CC1` [Example 33, 4-[Cyclopropyl-(3,5-difluoro-4-oxazol-5-yl-benzoyl)-amino]-piperidine-1-carboxylic acid tert-butyl ester] yielded an EC50 of 9 nM.

With `CC(C)(C)OC(=O)N1CCC(N(C(=O)c2ccc(-c3ccncc3C#N)c(F)c2)C2CC2)CC1` [Example 34, 4-{[4-(3-Cyano-pyridin-4-yl)-3-fluoro-benzoyl]-cyclopropyl-amino}-piperidine-1-carboxylic acid tert-butyl ester], the 50% effective concentration (EC50) is 21 nM.

In turn, `CC(C)(C)OC(=O)N1CCC(N(C(=O)c2ccc(-c3cnco3)cc2F)C2CC2)CC1` [Example 35, 4-[Cyclopropyl-(2-fluoro-4-oxazol-5-yl-benzoyl)-amino]-piperidine-1-carboxylic acid tert-butyl ester] showed an EC50 of 45 nM.

Turning to `CC(C)(C)OC(=O)N1CCC(N(C(=O)c2c(F)cc(-c3cnco3)cc2F)C2CC2)CC1` [Example 36, 4-[Cyclopropyl-(2,6-difluoro-4-oxazol-5-yl-benzoyl)-amino]-piperidine-1-carboxylic acid tert-butyl ester], the midpoint of the response, the EC50, lay at 219 nM.

As to `Cn1cncc1-c1ccc(C(=O)N(C2CC2)C2CCN(C(=O)OC(C)(C)C)CC2)cc1` [Example 42, 4-{Cyclopropyl-[4-(3-methyl-3H-imidazol-4-yl)-benzoyl]-amino}-piperidine-1-carboxylic acid tert-butyl ester], the EC50 amounted to 152 nM.

As for `Cc1ncc(-c2ccc(C(=O)N(C3CC3)C3CCN(C(=O)OC(C)(C)C)CC3)cc2)o1` [Example 43, 4-{Cyclopropyl-[4-(2-methyl-oxazol-5-yl)-benzoyl]-amino}-piperidine-1-carboxylic acid tert-butyl ester], the EC50 stood at 149 nM.

For the compound `CC(C)(C)OC(=O)N1CCC(N(C(=O)c2ccc(-c3cocn3)cc2)C2CC2)CC1` [Example 44, 4-[Cyclopropyl-(4-oxazol-4-yl-benzoyl)-amino]-piperidine-1-carboxylic acid tert-butyl ester], a half-maximal response (EC50) required 298 nM.

`COC1CN(C(=O)OC(C)(C)C)CCC1N(C(=O)c1ccc(-c2cnco2)cc1)C1CC1` (stereo not drawn) [Example 45, 4-[Cyclopropyl-(4-oxazol-5-yl-benzoyl)-amino]-3-methoxy-piperidine-1-carboxylic acid tert-butyl ester]: the response was half-maximal at 15 nM (EC50).

`CC(C)(C)OC(=O)N1CCC(N(C(=O)c2ccc(-n3ccnc3)cc2)C2CC2)CC1` [Example 52, 4-[Cyclopropyl-(4-imidazol-1-yl-benzoyl)-amino]-piperidine-1-carboxylic acid tert-butyl ester] showed an EC50 of 832 nM.

Turning to `CC(C)(C)OC(=O)N1CCC(N(C(=O)c2ccc(-c3cnco3)cc2)C2CC2)CC1` [Example 53, 4-[Cyclopropyl-(4-oxazol-5-yl-benzoyl)-amino]-piperidine-1-carboxylic acid tert-butyl ester], a half-maximal response (EC50) required 33 nM.

With `CC(C)(C)OC(=O)N1CCC(N(C(=O)c2ccc(-c3ccc(C#N)cc3)cc2)C2CC2)CC1` [Example 54, 4-[(4′-Cyano-biphenyl-4-carbonyl)-cyclopropyl-amino]-piperidine-1-carboxylic acid tert-butyl ester], the midpoint of the response, the EC50, lay at 84 nM.

`Cc1cn(-c2ccc(C(=O)N(C3CC3)C3CCN(C(=O)OC(C)(C)C)CC3)cc2)c(C)n1` [Example 55, 4-{Cyclopropyl-[4-(2,4-dimethyl-imidazol-1-yl)-benzoyl]-amino}-piperidine-1-carboxylic acid tert-butyl ester] showed an EC50 of 927 nM.

Take `CC(C)(C)OC(=O)N1CCC(N(C(=O)c2ccc(-n3cnc(-c4ccccc4)c3)cc2)C2CC2)CC1` [Example 56, 4-{Cyclopropyl-[4-(4-phenyl-imidazol-1-yl)-benzoyl]-amino}-piperidine-1-carboxylic acid tert-butyl ester]: the EC50 came to 104 nM.

In turn, `CC(C)(C)OC(=O)N1CCC(N(C(=O)c2ccc(-c3ccno3)cc2)C2CC2)CC1` [Example 57, 4-[Cyclopropyl-(4-isoxazol-5-yl-benzoyl)-amino]-piperidine-1-carboxylic acid tert-butyl ester] registered an EC50 of 99 nM.

In the case of `CC(C)(C)OC(=O)N1CCC(N(C(=O)c2ccc(-c3cccs3)cc2)C2CC2)CC1` [Example 58, 4-[Cyclopropyl-(4-thiophen-2-yl-benzoyl)-amino]-piperidine-1-carboxylic acid tert-butyl ester], the EC50 worked out at 214 nM.

As for `CC(C)(C)OC(=O)N1CCC(N(C(=O)c2ccc(-c3nccs3)cc2)C2CC2)CC1` [Example 59, 4-[Cyclopropyl-(4-thiazol-2-yl-benzoyl)-amino]-piperidine-1-carboxylic acid tert-butyl ester], the EC50 came to 332 nM.

`Cc1noc(-c2ccc(C(=O)N(C3CC3)C3CCN(C(=O)OC(C)(C)C)CC3)cc2)n1` [Example 60, 4-{Cyclopropyl-[4-(3-methyl-[1,2,4]oxadiazol-5-yl)-benzoyl]-amino}-piperidine-1-carboxylic acid tert-butyl ester] came in with an EC50 of 347 nM.

For the compound `Cc1nnc(-c2ccc(C(=O)N(C3CC3)C3CCN(C(=O)OC(C)(C)C)CC3)cc2)o1` [Example 61, 4-{Cyclopropyl-[4-(5-methyl-[1,3,4]oxadiazol-2-yl)-benzoyl]-amino}-piperidine-1-carboxylic acid tert-butyl ester], a half-maximal effect (EC50) was put at 513 nM.

`CC(C)(C)OC(=O)N1CCC(N(C(=O)c2ccc(-c3nnco3)cc2)C2CC2)CC1` [Example 62, 4-[Cyclopropyl-(4-[1,3,4]oxadiazol-2-yl-benzoyl)-amino]-piperidine-1-carboxylic acid tert-butyl ester] showed an EC50 of 650 nM.

`CC(C)(C)OC(=O)N1CCC(N(C(=O)c2ccc(-n3cncn3)cc2)C2CC2)CC1` [Example 63, 4-[Cyclopropyl-(4-[1,2,4]triazol-1-yl-benzoyl)-amino]-piperidine-1-carboxylic acid tert-butyl ester] gave an EC50 of 127 nM.

`CC(C)(C)OC(=O)N1CCC(N(C(=O)c2ccc(-n3cccc3)cc2)C2CC2)CC1` [Example 64, 4-[Cyclopropyl-(4-pyrrol-1-yl-benzoyl)-amino]-piperidine-1-carboxylic acid tert-butyl ester]: the EC50 worked out at 278 nM.

Consider `CC(C)(C)OC(=O)N1CCC(N(C(=O)c2ccc(-c3ccco3)cc2)C2CC2)CC1` [Example 65, 4-[Cyclopropyl-(4-furan-2-yl-benzoyl)-amino]-piperidine-1-carboxylic acid tert-butyl ester], for which the EC50 was 659 nM.

Turning to `CC(C)(C)OC(=O)N1CCC(N(C(=O)c2ccc(-c3nnc(N)s3)cc2)C2CC2)CC1` [Example 66, 4-{[4-(5-Amino-[1,3,4]thiadiazol-2-yl)-benzoyl]-cyclopropyl-amino}-piperidine-1-carboxylic acid tert-butyl ester], the EC50 stood at 875 nM.

`Cc1nc(-c2ccc(C(=O)N(C3CC3)C3CCN(C(=O)OC(C)(C)C)CC3)cc2)no1` [Example 67, 4-{Cyclopropyl-[4-(5-methyl-[1,2,4]oxadiazol-3-yl)-benzoyl]-amino}-piperidine-1-carboxylic acid tert-butyl ester] gave an EC50 of 316 nM.
